{
  "source": "patent US10272110B2",
  "about": "“Methods for promoting HSC engraftment” (CHILDREN'S MEDICAL CENTER CORPORATION, priority 2006, dated 2019)",
  "key": {"runx1/cmyb+ AGM HSCs [1]": {"test_system": "runx1/cmyb+ AGM HSCs", "experiment": "Heat shock wnt-pathway transgenic embryos treated with PG drugs: AGM HSC formation", "type": "in vivo, zebrafish", "experimental": "More specifically, Wnt signaling through its main transcriptional mediator β-catenin plays an important role in controlling tissue patterning, cell fate decisions, and proliferation in many embryonic contexts, including the development and differentiation of organs. […] Whether wnt signaling has a role during HSC formation in zebrafish was determined using heat shock inducible activators and repressors of the wnt pathway. Briefly, wnt-inducible embryos were harvested and heat shocked for twenty minutes at 38° C. Genotypes were sorted by GFP expression, and the AGM HSCs analyzed by runx1/cmyb expression in situ. […] This is the first evidence in any organism that wnt signaling is required for AGM HSC formation.\nAdditionally, indomethacin and dmPGE2 was used to investigate the interaction of the wnt and prostaglandin pathways during HSC development and in marrow recovery following injury. FIG. 13 reflects the potential points of interaction of the PG and wnt pathways. […] Furthermore, dmPGE2 can rescue the inhibitory effects of dkk activation on AGM HSC formation at 36 hpf, as shown by in situ hybridization for runx1/cmyb."}, "vasculature (flk1)": {"test_system": "vasculature (flk1)", "conditions": "zebrafish embryos, 36 hpf", "experimental": "Wild-type age-matched embryos were arrayed into 48-well plates (˜5 embryos/well) of individual test compounds and exposed from 3-somites until 36 hpf. Three compound libraries were utilized: NINDS Custom Collection (1040), SpecPlus Collection (960) and BIOMOL ICCB Known Bioactives (480). […] In situ hybridization for runx1 and cmyb was performed to assess HSCs. Compounds were retested at 10 μM, 20 μM, and 50 μM. Stem cell specificity was assessed using flk1 at 36 hpf. PGE2, PGI2, dmPGE2 and all cox inhibitors (Sigma) were used at 10 μM to 20 μM."}, "AGM HSCs": {"test_system": "AGM HSCs", "experiment": "Rescue of AGM HSCs in the mindbomb mutant", "type": "in vivo, zebrafish", "conditions": "preliminary studies", "description": "The mutant mindbomb lacks an E3 ubiquitin ligase for delta, the ligand of notch receptors. As such, mindbomb mutants completely lack notch signaling, and fail to make any hematopoietic stem cells in the AGM. Itoh et al., 4 Devel. Cell 67-82 (2003). Overexpression of runx1 rescues the number of c−myb positive cells in the AGM in mindbomb. This implies that runx is an important target of notch. […] This may be due to a defect in the ability of the cells to respond to prostaglandin E2; notch signaling is likely to be required earlier in the development of the AGM region than prostaglandin E2. Dose response curves with prostaglandin E2 in the mindbomb mutant may shed light on this. Conversely, Notch ICD embryos that have increased stem cell number by 36 hpf may be incubated with Cox inhibitors to see if prostaglandin signaling has a role in mediating AGM HSC upregulation. Other hematopoietic mutants may be studied similarly."}, "wnt activity [2]": {"test_system": "wnt activity", "experiment": "wnt activity in kidney marrow of irradiated Top:dGFP adults", "type": "in vivo, zebrafish", "conditions": "day three post irradiation", "experimental": "To determine if prostaglandin pathway manipulation can alter wnt activity in the kidney marrow repopulation in the adult, the effects of dmPGE2 and indomethacan was examined further in Top:dGFP lines. […] FIG. 14. To discern whether modulation of prostaglandin signaling can modify the wnt mediated effects on kidney marrow recovery following irradiation, wnt genes were activated by heat shock at 38° C. at two days post irradiation and then. exposure to prostaglandin pathway drugs at one day post heat shock. The hs:wnt8-GFP fish were exposed to indomethacin, while the dkk1, axin, and dnTCF transgenic fish were exposed to dmPGE2. Whole kidney marrow was analyzed by FACS on day ten post-irradiation."}, "mouse ES cells": {"test_system": "mouse ES cells", "experiment": "ES cell hematopoietic differentiation assays (M3434 methylcellulose and OP9 colony assays)", "type": "cell-based", "experimental": "ES cell hematopoietic differentiation assays were performed as previously described. […] M3434 methylcellulose colony forming and OP9 colony assays were conducted on day 6 and analyzed at […], respectively. Colony type was identified by morphological analysis; duplicate chemical exposures were averaged to determine the reported colony number (n=3 replicates minimum)."}, "[3]": {"test_system": "kidney marrow (KM) hematopoietic lineages", "experiment": "Kidney marrow irradiation recovery assay in adult zebrafish", "conditions": "50 μM vs DMSO, sublethally irradiated adult zebrafish", "from_the_text": "Wild-type fish were sublethally irradiated, exposed to dmPGE2, and evaluated for kinetics of KM recovery by FACS 11 (FIG. 4A).\nAdult zebrafish were exposed to 23 Gy of γ-irradiation. […] Whole KM isolated on days 0, 2, 4, 7, 10, 14 was subjected to FSC/SSC FACS analysis to identify hematopoietic lineages (n=5/treatment×3 replicates)."}, "wnt activity [4]": {"test_system": "wnt activity", "experiment": "wnt reporter TOP:dGFP zebrafish embryos", "type": "in vivo", "conditions": "vs control", "description": "Clinical experience in patients with APC mutations has shown that inhibition of prostaglandin synthesis results in decreased wnt mediated polyp formation. […] These interactions were examined in vivo using a wnt reporter zebrafish transgenic line, TOP:dGFP. At fifty-percent epiboly, embryos were subjected either to nothing (control), indomethacin, or PGE2, and the amount of wnt signaling activated in the embryo assessed by GFP induction driven from the wnt binding site. Analysis of alterations in GFP expression in the head was analyzed by in situ hybridization. […] FIG. 12."}, "runx1, cmyb expression": {"test_system": "runx1, cmyb expression", "experiment": "qPCR of HSC gene expression in treated zebrafish embryos", "type": "in vivo"}, "cmyb/lmo2+ HSCs": {"test_system": "cmyb/lmo2+ HSCs", "experiment": "Confocal quantification of HSCs in cmyb:GFP x lmo2:dsRed bigenic embryos", "type": "in vivo, zebrafish", "experimental": "A long-acting derivative, 16,16-dimethyl-PGE2 (dmPGE2, 10 μM) caused an increase in runx1/cmyb+ AGM HSCs in 78% of embryos examined (97/124). AGM HSCs were inhibited by indomethacin (10 μM) treatment in 90% of embryos analyzed (92/102). […] Transgenic cmyb:GFP zebrafish with green fluorescent HSCs and myeloid progenitor cells were crossed to lmo2:dsRed fish that have red fluorescent endothelial cells and HSCs to visualize the effects of chemical exposure in vivo. […] FIG. 3.\nLive 36 hpf treated bigenic zebrafish embryos were embedded in 1% low-melting point agarose containing 0.4 mg/ml Tricaine-S for confocal imaging. cmyb-GFP transgenic reporter lines were created from a BAC containing the cmyb promoter genomic sequence (Galloway, Zhu, Lin, Zon, unpublished); lmo2:DsRed fish were created as described^27. For HSC quantification, cmyb/lmo2+ positive cells were counted in projections of z-stack images (n=10/treatment)."}, "runx1/cmyb+ AGM HSCs [5]": {"test_system": "runx1/cmyb+ AGM HSCs", "experiment": "Morpholino knockdown and dmPGE2 rescue of AGM HSCs", "type": "in vivo, zebrafish", "experimental": "PGE2 signals through several receptors, EP1-4, all of which are present in the zebrafish genome. Cha et al., 20 Genet. Devel.\nFor rescue experiments, 3-somite stage MO-injected embryos were exposed to 10 μM dmPGE2."}},
  "note": "“Also recorded” adds a separate entry of the source.",
  "data": [
    {"smiles": "CCCCC(C)(C)[C@H](O)/C=C/[C@H]1[C@H](O)CC(=O)[C@@H]1C/C=C\\CCCC(=O)O", "note": "[dmPGE2, 16,16-dimethyl-PGE2]", "values": [
      {"measurement": "rescue of inhibited AGM HSC formation under wnt repression (dkk activation)", "setting": "runx1/cmyb+ AGM HSCs [1]; 36 hpf, runx1/cmyb in situ hybridization", "result": "partially rescued; also recorded: can rescue"},
      {"measurement": "rescue of HSC formation in embryos over-expressing dnTCF", "setting": "runx1/cmyb+ AGM HSCs [1]; preliminary results", "result": "not sufficient"},
      {"measurement": "effect on vasculature / flk1 staining (in words)", "setting": "vasculature (flk1)", "result": "minimal effects on the vasculature"},
      {"measurement": "rescue of the mindbomb mutant", "setting": "AGM HSCs", "result": "failed to demonstrate any type of rescue"},
      {"measurement": "wnt activity (GFP) in kidney marrow of Top:dGFP adults", "setting": "wnt activity [2]", "result": "significantly enhanced wnt activity"},
      {"measurement": "OP9, definitive erythroid (dE) and granulocyte/monocyte (GM) colonies", "setting": "mouse ES cells; 10 μM and 20 μM", "result": "increased in a dose-dependent manner"},
      {"measurement": "toxicity to ES cells", "setting": "mouse ES cells; 100 μM", "result": "toxic"},
      {"measurement": "number of multipotent GEMM colonies, enhancement", "setting": "mouse ES cells; dmPGE2 10 μM, 20 μM, methylcellulose", "result": 2.9, "unit": "fold"},
      {"measurement": "rescue of indomethacin inhibition of colony formation", "setting": "mouse ES cells; dmPGE2 10 μM, indomethacin 100 μM, methylcellulose and OP9", "result": "rescued"},
      {"measurement": "rate of hematopoietic reconstitution of the KM", "setting": "[3]", "result": "significantly enhanced"},
      {"measurement": "wnt activity (GFP expression) in TOP:dGFP embryos", "setting": "wnt activity [4]", "result": "enhance wnt signaling"},
      {"measurement": "cmyb expression by qPCR (in words)", "setting": "runx1, cmyb expression; 10 μM", "result": "significant alterations"},
      {"measurement": "runx1 expression by qPCR, enhancement", "setting": "runx1, cmyb expression; dmPGE2 10 μM", "result": 3, "unit": "fold"},
      {"measurement": "HSC numbers by confocal microscopy (mean±SD)", "setting": "cmyb/lmo2+ HSCs; 10 μM, bigenic embryos, n=10/treatment, DMSO 23.3±5.0", "result": "38.0±2.2"},
      {"measurement": "HSC numbers along the floor of the aorta by confocal microscopy (in words)", "setting": "cmyb/lmo2+ HSCs; 36 hpf live embryos", "result": "significantly increased HSCs"},
      {"measurement": "rescue of HSCs in cox1 MO embryos (# rescued/# scored)", "setting": "runx1/cmyb+ AGM HSCs [5]; 10 μM dmPGE2", "result": "29/52"},
      {"measurement": "rescue of HSCs in cox2 MO embryos (# rescued/# scored)", "setting": "runx1/cmyb+ AGM HSCs [5]; 10 μM dmPGE2", "result": "43/60"},
      {"measurement": "rescue of HSCs in PGE2 synthase MO embryos (# rescued/# scored)", "setting": "runx1/cmyb+ AGM HSCs [5]; dmPGE2 addition", "result": "25/45"},
      {"measurement": "reversal of diminished runx1/cmyb expression in EP2 and EP4 MO embryos", "setting": "runx1/cmyb+ AGM HSCs [5]; exogenous dmPGE2", "result": "not reversed"}
    ]}
  ]
}
